Counter-ions that a name gives are not always drawn.

Data set [1] concerns Pyrenophora teres (Helminthosporium). As to the kind of experiment: Assay B-10: Effect against Pyrenophora teres (Helminthosporium)/barley (net blotch on barley). It is filed as in vivo. The note with it: Pyrenophora teres on barley cv. Regina, 0.02% active substance, spray; for pest or weed control at 0.02 % strength: 96 h, read-out: B10 activity. The protocol: Assay B-10: Effect Against Pyrenophora teres (Helminthosporium)/Barley (Net Blotch on Barley) 1 week old barley plants cv. Regina are treated with a formulated testcompound (0.02% active substance) in a spray chamber. Two days after application barley plants are inoculated by spraying a spore suspension (3×10^4 conidia/ml) on the test plants. After an incubation period of 2 days at 20° C. and 95% r.h. plants are kept for 2 days at 20° C. and 60% r.h. in a greenhouse. The disease incidence is assessed 4 days after inoculation.

In data set [2] the test system is Botrytis cinerea. In words: Assay B-8: Effect against Botrytis cinerea/tomato (Botrytis on tomatoes). It is filed as in vivo. The note with it: Botrytis cinerea on tomato cv. Roter Gnom; 0.02% active substance, spray. The protocol: Assay B-8: Effect Against Botrytis cinerea/Tomato (Botrytis on Tomatoes) 4 week old tomato plants cv. Roter Gnom are treated with the formulated testcompound 0.02% active substance) in a spray chamber. Two days after application tomato plants are inoculated by spraying a spore suspension (1×10^5 conidia/ml) on the test plants. After an incubation period of 4 days at 20° C. and 95% r. h. in a greenhouse the disease incidence is assessed.

Another data set concerns Septoria nodorum. As to the kind of experiment: Assay B-12: Effect against Septoria nodorum/wheat (Septoria leaf spot on wheat). It is filed as in vivo. Particulars: Septoria nodorum on wheat cv. Arina, 0.02% active substance, spray; for pest or weed control at 0.02 % strength: Parastagonospora nodorum, 264 h, read-out: B12 activity. On the procedure: Assay B-12: Effect Against Septoria nodorum/Wheat (Septoria Leaf Spot on Wheat) 1 week old wheat plants cv. Arina are treated with a formulated test compound (0.02% active substance) in a spray chamber. One day after application wheat plants are inoculated by spraying a spore suspension (5×10^5 conidia/ml) on the test plants. After an incubation period of 1 day at 20° C. and 95% r.h. plants are kept for 10 days at 20° C. and 60% r.h. in a greenhouse. The disease incidence is assessed 11 days after inoculation.

A further data set concerns Venturia inaegualis. As to the kind of experiment: Assay B-5: Residual protective activity against Venturia inaegualis on apples (scab on apple). Format: in vivo. Particulars: Venturia inaegualis on apple seedlings cv. McIntosh; 0.02% active substance, spray. On the procedure:
Assay B-5: Residual Protective Activity Against Venturia inaegualis on Apples (Scab on Apple) 4 week old apple seedlings cv. McIntosh are treated with the formulated testcompound (0.02% active substance) in a spray chamber. One day after application apple plants are inoculated by spraying a spore suspension (4×10^5 conidia/ml) on the test plants. After an incubation period of 4 days at 21° C. and 95% r. h. the plants are placed for 4 days at 21° C. and 60% r. h. in a greenhouse. After another 4 day incubation period at 21° C. and 95% r. h. the disease incidence is assessed.

The subject of data set [3] is Botrytis cinerea. In words: Assay B-7: Botrytis cinerea/grape (Botrytis on grapes). It is filed as in vivo. Particulars: Botrytis cinerea on grape seedlings cv. Gutedel; 0.02% active substance, spray. On the procedure:
Assay B-7: Botrytis cinerea/Grape (Botrytis on Grapes) 5 week old grape seedlings cv. Gutedel are treated with the formulated testcompound (0.02% active substance) in a spray chamber. Two days after application grape plants are inoculated by spraying a spore suspension (1×10^6 conidia/ml) on the test plants. After an incubation period of 4 days at 21° C. and 95% r. h. in a greenhouse the disease incidence is assessed.

As to `NNc1cc(-c2ccnc(Nc3cccc(Cl)c3)n2)ccn1` [Compound 22], the melting point (usually the temperature, or range, at which the solid turns liquid) lay in the range of 201 to 203 °C. Besides, the pest or weed control at 0.02 % strength in data set [1] was over 70%.

The molecule `CNc1cc(-c2ccnc(Nc3cccc(Cl)c3)n2)ccn1` [Compound 64] returned a melting point of 196 to 197 °C. For the same molecule, in the data set on Botrytis cinerea [2], the B8 activity entry is reported as “+ (the activity observed in the corresponding test system is 70% or more)”. Further, in data set [1], the pest or weed control at 0.02 % strength is over 70%. Also, in the data set with Septoria nodorum, the pest or weed control at 0.02 % strength is over 70%.

Consider `CCC(C)C(CO)Nc1cc(-c2ccnc(Nc3cccc(Cl)c3)n2)ccn1` (stereo not drawn) [Compound 41], for which the B5 activity result with Venturia inaegualis is reported as “+ (the activity observed in the corresponding test system is 70% or more)”. Moreover, the B7 activity entry with Botrytis cinerea [3] is listed as “+ (the activity observed in the corresponding test system is 70% or more)”. For the same molecule, the B10 activity result in data set [1] was “+ (the activity observed in the corresponding test system is 70% or more)”.

Consider `CC(C)Nc1cc(-c2ccnc(Nc3cccc(Cl)c3)n2)ccn1` (as salt: HCl) [Compound 82], for which the melting point was in the range of 88 to 89 °C.

`CC(C)(C)Nc1cc(-c2ccnc(Nc3cccc(Cl)c3)n2)ccn1` [Compound 70] gave a melting point of 125 to 126 °C. In addition, in the data set on Botrytis cinerea [2], the B8 activity result is listed as “+ (the activity observed in the corresponding test system is 70% or more)”. Also, the pest or weed control at 0.02 % strength in data set [1] was over 70%. Moreover, the pest or weed control at 0.02 % strength in the data set on Septoria nodorum is over 70%.

As to `CC(COc1ncccn1)Nc1cc(-c2ccnc(Nc3cccc(Cl)c3)n2)ccn1` (stereo not drawn) [Compound 95], the B5 activity entry in the data set with Venturia inaegualis is reported as “+ (the activity observed in the corresponding test system is 70% or more)”. Besides, the B10 activity entry in data set [1] was “+ (the activity observed in the corresponding test system is 70% or more)”. The B12 activity result with Septoria nodorum is “+ (the activity observed in the corresponding test system is 70% or more)”.

With `CC(CNc1cc(-c2ccnc(Nc3cccc(Cl)c3)n2)ccn1)Cn1ccnc1` (stereo not drawn) [Compound 30], the B5 activity result in the data set with Venturia inaegualis is reported as “+ (the activity observed in the corresponding test system is 70% or more)”. Besides, the B8 activity result with Botrytis cinerea [2] is on record as “+ (the activity observed in the corresponding test system is 70% or more)”. Further, the B10 activity entry in data set [1] is on record as “+ (the activity observed in the corresponding test system is 70% or more)”. For the same molecule, the B12 activity entry in the data set on Septoria nodorum is “+ (the activity observed in the corresponding test system is 70% or more)”.

Consider `CCOCCNc1cc(-c2ccnc(Nc3cccc(Cl)c3)n2)ccn1` [Compound 26], for which, in the data set on Botrytis cinerea [3], the B7 activity result was “+ (the activity observed in the corresponding test system is 70% or more)”. For the same molecule, in the data set with Botrytis cinerea [2], the B8 activity result was “+ (the activity observed in the corresponding test system is 70% or more)”. Further, the B10 activity result in data set [1] is reported as “+ (the activity observed in the corresponding test system is 70% or more)”. For the same molecule, in the data set on Septoria nodorum, the B12 activity entry was “+ (the activity observed in the corresponding test system is 70% or more)”.

As to `Clc1cccc(Nc2nccc(-c3ccnc(N4CCNCC4)c3)n2)c1` [Compound 21], the melting point is 103 to 104 °C.

As for `OCC(CO)Nc1cc(-c2ccnc(Nc3cccc(Cl)c3)n2)ccn1` [Compound 35], the B5 activity entry with Venturia inaegualis is listed as “+ (the activity observed in the corresponding test system is 70% or more)”. Moreover, the B7 activity result in the data set on Botrytis cinerea [3] is listed as “+ (the activity observed in the corresponding test system is 70% or more)”. In the data set with Botrytis cinerea [2], the B8 activity result is “+ (the activity observed in the corresponding test system is 70% or more)”. Also, in data set [1], the B10 activity entry is on record as “+ (the activity observed in the corresponding test system is 70% or more)”.

In the case of `Clc1cccc(Nc2nccc(-c3ccnc(NCC4CCCO4)c3)n2)c1` (stereo not drawn) [Compound 75], in the data set on Venturia inaegualis, the B5 activity entry was “+ (the activity observed in the corresponding test system is 70% or more)”. Moreover, the B7 activity entry in the data set with Botrytis cinerea [3] was “+ (the activity observed in the corresponding test system is 70% or more)”. Further, the B8 activity entry in the data set on Botrytis cinerea [2] was “+ (the activity observed in the corresponding test system is 70% or more)”. The B10 activity result in data set [1] is “+ (the activity observed in the corresponding test system is 70% or more)”. The B12 activity entry with Septoria nodorum was “+ (the activity observed in the corresponding test system is 70% or more)”.

For `C=CCNc1cc(-c2ccnc(Nc3cccc(Cl)c3)n2)ccn1` [Compound 69], the B5 activity entry in the data set with Venturia inaegualis was “+ (the activity observed in the corresponding test system is 70% or more)”. For the same molecule, in the data set with Botrytis cinerea [3], the B7 activity entry is “+ (the activity observed in the corresponding test system is 70% or more)”. Besides, in the data set on Botrytis cinerea [2], the B8 activity result is reported as “+ (the activity observed in the corresponding test system is 70% or more)”. The B10 activity entry in data set [1] was “+ (the activity observed in the corresponding test system is 70% or more)”. The B12 activity result in the data set on Septoria nodorum was “+ (the activity observed in the corresponding test system is 70% or more)”.

Take `CCC(=O)Nc1cc(-c2ccnc(Nc3cccc(Cl)c3)n2)ccn1` [Compound 96]: the melting point fell in the range of 215 to 216 °C. In the data set with Venturia inaegualis, the B5 activity entry was “+ (the activity observed in the corresponding test system is 70% or more)”. Further, the pest or weed control at 0.02 % strength in data set [1] is over 70%. For the same molecule, the pest or weed control at 0.02 % strength with Septoria nodorum is over 70%.

`CCNc1cc(-c2ccnc(Nc3cccc(Cl)c3)n2)ccn1` [Compound 60] yielded a melting point of 201 °C. Moreover, the B5 activity entry with Venturia inaegualis is “+ (the activity observed in the corresponding test system is 70% or more)”. Further, the B7 activity result in the data set with Botrytis cinerea [3] is listed as “+ (the activity observed in the corresponding test system is 70% or more)”. For the same molecule, in the data set with Botrytis cinerea [2], the B8 activity entry was “+ (the activity observed in the corresponding test system is 70% or more)”. Moreover, the pest or weed control at 0.02 % strength in data set [1] is over 70%. Further, the pest or weed control at 0.02 % strength in the data set on Septoria nodorum was over 70%.

With `Clc1cccc(Nc2nccc(-c3ccnc(N4CCOCC4)c3)n2)c1` [Compound 17], the melting point lay in the range of 175 to 176 °C.

Regarding `CC(C)(CO)Nc1cc(-c2ccnc(Nc3cccc(Cl)c3)n2)ccn1` [Compound 28], in the data set with Venturia inaegualis, the B5 activity result is listed as “+ (the activity observed in the corresponding test system is 70% or more)”. Also, the B7 activity result in the data set on Botrytis cinerea [3] is on record as “+ (the activity observed in the corresponding test system is 70% or more)”. Also, the B8 activity entry with Botrytis cinerea [2] was “+ (the activity observed in the corresponding test system is 70% or more)”. For the same molecule, the B10 activity result in data set [1] is given as “+ (the activity observed in the corresponding test system is 70% or more)”. Further, the B12 activity result in the data set with Septoria nodorum is reported as “+ (the activity observed in the corresponding test system is 70% or more)”.

On to `CCCC(CO)Nc1cc(-c2ccnc(Nc3cccc(Cl)c3)n2)ccn1` (stereo not drawn) [Compound 27], for which, in the data set with Botrytis cinerea [3], the B7 activity result is “+ (the activity observed in the corresponding test system is 70% or more)”. The B8 activity entry in the data set on Botrytis cinerea [2] is “+ (the activity observed in the corresponding test system is 70% or more)”. Besides, in data set [1], the B10 activity entry is reported as “+ (the activity observed in the corresponding test system is 70% or more)”. Further, in the data set with Septoria nodorum, the B12 activity result is listed as “+ (the activity observed in the corresponding test system is 70% or more)”.

Consider `COCOCC(C)N(COC)c1cc(-c2ccnc(Nc3cccc(Cl)c3)n2)ccn1` (stereo not drawn) [Compound 38], for which the B5 activity entry in the data set with Venturia inaegualis is “+ (the activity observed in the corresponding test system is 70% or more)”. Besides, in data set [1], the B10 activity result is recorded as “+ (the activity observed in the corresponding test system is 70% or more)”. Moreover, in the data set on Septoria nodorum, the B12 activity entry was “+ (the activity observed in the corresponding test system is 70% or more)”.
